Reference: patent US20240216476A1, “COMBINATION OF BITTER RECEPTOR AGONIST AND GUT-SIGNALING COMPOUND” (AARDVARK THERAPEUTICS, INC., priority 2021, published 2024)
Where two headings read alike, the source gives them in different places. Marks after values point to notes of the source that are not given here.

Tests used:
[1] = in vivo; cited from earlier work
C57BL/6 mice fed on HFD = conditions: end of study, cited from earlier work
NASH in vivo models [2] = assay: NASH in vivo models, summary and comparison of data from multiple studies (Table 15; first row Aardvark Therapeutics, PCT/US2022/014550); conditions: Male C57BL/6 mice fed AMLN diet for 48 weeks; 30 mg/kg, PO, QD for 48 weeks
Excerpt: FIGS. 23 through 33B show data from this Example 6, which is further described above under the heading, Brief Description of the Figures. A summary and comparison of NASH in vivo data from multiple studies is shown below in Table 15. [table] […] This makes it difficult to do direct comparisons of the data. The study corresponding to the first row (called Aardvark Therapeutics) is provided in PCT Patent application PCT/US2022/014550, filed Jan. 31, 2022.

[3] = system: C57Bl/6J mice fed with high-fat diet; conditions: alogliptin 0.03% (wt/wt) in diet for life span, cited from earlier work
ob/ob mice = conditions: alogliptin 42.2 mg/kg/day 28 days, cited from earlier work
[4] = cited from earlier work; for Effect on Body Weight (placebo-adjusted change from baseline) / Effect on HbA1c (placebo-adjusted change from baseline) / Effect on Body Weight (placebo-adjusted change from baseline), percent: QD 24-26 weeks; for TC level change from baseline / LDL level change from baseline: placebo +2%; for HDL level change from baseline: placebo +1%; for TG level change from baseline: placebo −2%
NASH in vivo models [5] = conditions: Male C57BL/6J mice fed AMLN diet for 32 weeks, 10 nmol/kg, SC for 12 weeks, cited from earlier work
[6] = system: AMLN-diet induced mice (fatty liver disease/NASH model); assay type: in vivo; conditions: in words
Excerpt: This Example provides the results obtained from an in vivo mouse model of fatty liver disease treatment to investigate the therapeutic effect of DA on the treatment of NASH versus positive control semaglutide (a GLP-1 agonist marketed drug for lowering HbA1c). This study used a positive control semaglutide, a vehicle control, study drug DA and a combination of semaglutide and DA. Mouse strain (B6 mice) was used, and the animals were already adults (23 weeks old) when the study began because the animals were already fed an AMLN diet for 17 weeks prior to the study being initiated. The study dose began at 75 mg/kg BID.
The study included 3 groups of 10 mice each, (A) vehicle control with distilled water by gavage BID, (B) DA by gavage BID, and (C) semaglutide […] sc QD. Body weights and changes were measured 3× per week. Serum metabolic markers (blood glucose, blood insulin, HbA1c, HDL, LDL triglycerides and bile acids) were measured at beginning of dosing (baseline) and end of study. At the end of the study, histopathology of liver samples and serum levels of inflammatory biomarkers (IL-6, TNFα, CK-18 and TGF-β) were evaluated. Histopathology was performed blindly with a scoring scale according to NAFLD Activity Score and Fibrosis Score according to Table 13. Table 14 identifies the kits and equipment used to measure serum parameters.

[7] = cited from earlier work; for percentage of patients in whom NASH resolution was achieved with no worsening of fibrosis: placebo 17%
[8] = side effect incidence; cited from earlier work
[9] = exenatide 24 nmol/kg QD IP 4 weeks, dulaglutide 0.6 mg/kg once weekly IP 12 weeks, liraglutide 0.3 mg/kg QD SC 38 days
[10] = exenatide 24 nmol/kg QD IP 4 weeks, dulaglutide 0.6 mg/kg once weekly IP 12 weeks, liraglutide 0.3 mg/kg QD SC 38 days, semaglutide 25 nmol/kg every two days SC 3 weeks
[11] = sitagliptin 0.004% in diet 12 weeks, vildagliptin 30 mg/kg/day 7 weeks
[12] = vildagliptin 30 mg/kg/day 7 weeks
[13] = sitagliptin 0.0018% in diet 12 weeks
[14] = semaglutide 3 mg, sitagliptin 100 mg, saxagliptin 2.5 mg, vildagliptin 50 mg, alogliptin 12.5 mg, linagliptin 5 mg
[15] = semaglutide 7 mg, sitagliptin 200 mg, saxagliptin 5 mg, vildagliptin 100 mg, alogliptin 25 mg
[16] = semaglutide 14 mg, saxagliptin 10 mg
[17] = exenatide 24 nmol/kg QD IP 4 weeks, semaglutide 25 nmol/kg every two days SC 3 weeks
[18] = semaglutide 25 nmol/kg every two days SC 3 weeks

## Dulaglutide: fusion protein GLP-1 receptor agonist
[1]
  Incidence of Hypoglycemic Episodes for Combination with Insulin (vs. Placebo): 14.7%*
  Incidence of Hypoglycemic Episodes for Combination with Metformin (vs. Placebo): 0.7%
  Incidence of Hypoglycemic Episodes for Combination with a Sulfonylurea (vs. Placebo): 3.3%
C57BL/6 mice fed on HFD; dulaglutide 0.6 mg/kg once weekly IP 12 weeks, liraglutide 0.3 mg/kg QD SC 38 days
  Control-adjusted Percent Change in Insulin Level: −77%*
C57BL/6 mice fed on HFD; [9]
  Control-adjusted Body Weight Gain: -8.1 g
  Control-adjusted Percent Change in Body Weight: −15.9%*
C57BL/6 mice fed on HFD; [10]
  Control-adjusted Percent Change in Fasting Blood Glucose: −16.3%*

## CC(=O)[O-].CC[N+](CC)(CC(=O)Nc1c(C)cccc1C)Cc1ccccc1 [DA or ARD-101]
NASH in vivo models [2]
  serum level of ALT, change: ALT (−43%), AST
  serum level of AST, change: (−9.5%), and bile acid
  serum level of HbAlc, change: −6.7%
  serum level of bile acid, change: (−16.2%)
  serum level of fasting glucose, change: −9%
  serum levels of GLP-1 and GLP-2: Increased serum levels
  serum levels of inflammatory markers: Lowered serum levels
  steatosis and fibrosis on histopathology: Significantly improved

## Cn1c(=O)cc(N2CCC[C@@H](N)C2)n(Cc2ccccc2C#N)c1=O [Alogliptin]
[3]
  Control-adjusted Percent Change in HbA1c Level: −8.8%
  Control-adjusted Percent Change in Lipid Levels: LDL: −16.4% in LDL
[3]; [11]
  Control-adjusted Percent Change in Body Weight Gain: −32.6%*
  Control-adjusted Percent Change in Fasting Blood Glucose: −10.1%
  Control-adjusted Percent Change in Insulin Level: -47.9%*
[3]; [12]
  Control-adjusted Percent Change in Lipid Levels: TC: −1.1% in TC
  Control-adjusted Percent Change in Lipid Levels: TG: −19.2% in TG*
ob/ob mice
  Control-adjusted Percent Change in HbA1c Level: −13%**
ob/ob mice; [13]
  Control-adjusted Percent Change in Fasting Blood Glucose: −15.6%
  Control-adjusted Percent Change in Insulin Level: +105%* *
  Control-adjusted Percent Change in TG Level: −24.5%
[4]; alogliptin 12.5 mg QD 26 weeks, placebo +1.3
  HDL (mg/dL): HDL (mg/dL): +0.9
[4]; alogliptin 12.5 mg QD 26 weeks, placebo +4.6
  LDL (mg/dL): LDL (mg/dL): −0.5
[4]; alogliptin 12.5 mg QD 26 weeks, placebo +10.1
  TC (mg/dL): TC (mg/dL): −1.2
[4]; alogliptin 12.5 mg QD 26 weeks, placebo +26.5
  TG (mg/dL): TG (mg/dL): −5.8
[4]; [14]
  Effect on Body Weight (placebo-adjusted change from baseline): 12.5 mg: −0.27 kg
  Effect on HbA1c (placebo-adjusted change from baseline): 12.5 mg: −0.54%
[4]; [15]
  Effect on Body Weight (placebo-adjusted change from baseline): 25 mg: −0.4 kg
  Effect on HbA1c (placebo-adjusted change from baseline): 25 mg: −0.57%

## Semaglutide
NASH in vivo models [5]
  liver TG and total cholesterol levels, plasma ALT level, and liver content of fibrosis markers: Significantly decreased
NASH in vivo models [5]; significant
  liver weight and NAS overall score: decreased liver weight
[6]; 12 weeks, DA 75 then 50 mg/kg BID by gavage, semaglutide 10 mmol/kg sc QD
  NAFLD Activity Score based on blinded histopathologic review: significantly improved NAFLD Activity Score
[6]; 12 weeks, DA 75 then 50 mg/kg BID, semaglutide 10 mmol/kg sc QD
  body weight and body weight change: remarkable effect on body weight
[6]; end of study
  HDLs: significantly decreased
  LDLs: significantly decreased
  TGs: significantly decreased
[7]; 0.1-mg group
  percentage of patients in whom NASH resolution was achieved with no worsening of fibrosis: 40%
[7]; 0.2-mg group
  percentage of patients in whom NASH resolution was achieved with no worsening of fibrosis: 36%
[7]; 0.4-mg group, placebo 1%
  mean percent weight loss: 13%
[7]; 0.4-mg group
  percentage of patients in whom NASH resolution was achieved with no worsening of fibrosis: 59%
[7]; human, in vivo
  incidence of constipation: 22%
  incidence of nausea: 42%
  incidence of vomiting: 15%
  patients with malignant neoplasms: 1%
  patients with neoplasms (benign, malignant, or unspecified): 15%
[1]
  Incidence of Hypoglycemic Episodes for Combination with Insulin (vs. Placebo): 29.8%*
  Incidence of Hypoglycemic Episodes for Monotherapy at the Highest Dose (vs. Placebo): 3.8%
[4]; oral semaglutide 3 mg, 26-week trial product estimate from another clinical trial
  TC level change from baseline: from baseline: −3%
[4]; oral semaglutide 3 mg, 26-week
  HDL level change from baseline: from baseline: 0%
  LDL level change from baseline: from baseline: −4%
  TG level change from baseline: from baseline: −5%
[4]; oral semaglutide 7 mg, 26-week
  HDL level change from baseline: (3 mg), −2%
  LDL level change from baseline: (3 mg) ^$, −6%
  TC level change from baseline: (3 mg) ^$$ −5%
  TG level change from baseline: (3 mg), −9%
[4]; [14]
  Effect on Body Weight (placebo-adjusted change from baseline): 3 mg: −0.2 kg
  Effect on HbA1c (placebo-adjusted change from baseline): 3 mg: −0.7%
[4]; semaglutide 3 mg, sitagliptin 100 mg, saxagliptin 2.5 mg, vildagliptin 50 mg
  Effect on Body Weight (placebo-adjusted change from baseline), percent: (−0.23%)
[4]; [15]
  Effect on Body Weight (placebo-adjusted change from baseline): 7 mg: −1.0 kg
  Effect on HbA1c (placebo-adjusted change from baseline): 7 mg: −1.2%
[4]; semaglutide 7 mg, sitagliptin 200 mg, saxagliptin 5 mg, vildagliptin 100 mg
  Effect on Body Weight (placebo-adjusted change from baseline), percent: (−1.1%)
[4]; [16]
  Effect on Body Weight (placebo-adjusted change from baseline): 14 mg: −2.6 kg
  Effect on Body Weight (placebo-adjusted change from baseline), percent: (−3.0%)
  Effect on HbA1c (placebo-adjusted change from baseline): 14 mg: −1.4%
C57BL/6 mice fed on HFD; [10]
  Control-adjusted Percent Change in Fasting Blood Glucose: −12.8%***
C57BL/6 mice fed on HFD; [17]
  Control-adjusted Percent Change in Lipid Levels: TC: TC: −16.7%**
  Control-adjusted Percent Change in Lipid Levels: TG: TG: −13.8%**
C57BL/6 mice fed on HFD; [18]
  Absolute body weight percent change: −13.4%^##
  Control-adjusted Percent Change in Lipid Levels: LDL: LDL: −9.3%*

## CC[C@H](C)[C@H](NC(=O)[C@H](Cc1ccccc1)NC(=O)[C@H](CC(=O)O)NC(=O)[C@H](CCCNC(=N)N)NC(=O)[C@H](C)NC(=O)[C@H](C)NC(=O)[C@H](CC(C)C)NC(=O)[C@H](CC(N)=O)NC(=O)[C@H](CC(=O)O)NC(=O)[C@H](CC(C)C)NC(=O)[C@@H](NC(=O)[C@@H](NC(=O)[C@H](CC(N)=O)NC(=O)[C@H](CCSC)NC(=O)[C@H](CCC(=O)O)NC(=O)[C@H](CC(=O)O)NC(=O)[C@H](CO)NC(=O)[C@H](Cc1ccccc1)NC(=O)[C@H](CO)NC(=O)CNC(=O)[C@H](CC(=O)O)NC(=O)CNC(=O)[C@@H](N)Cc1c[nH]cn1)[C@@H](C)O)[C@@H](C)CC)C(=O)N[C@@H](CC(N)=O)C(=O)N[C@@H](Cc1c[nH]c2ccccc12)C(=O)N[C@@H](CC(C)C)C(=O)N[C@H](C(=O)N[C@@H](CCC(N)=O)C(=O)N[C@H](C(=O)N[C@@H](CCCCN)C(=O)N[C@H](C(=O)N[C@H](C(=O)N[C@@H](CC(=O)O)C(=O)O)[C@@H](C)O)[C@@H](C)CC)[C@@H](C)O)[C@@H](C)CC [teduglutide]
[8]
  injection site reaction: 13%
  intestinal stoma complication: 42%
  upper respiratory tract infection: 21%
